Type in all cases: cell-based
Assay [1] deals with Leishmania donovani axenic amastigote. The assay can be described thus: In vitro assay for growth inhibition of Leishmania donovani axenic amastigote (Cell TiterGlo luminescence). The note with it: Leishmania donovani, L. donovani axenic amastigotes in vitro; read-out: L. donovani amastigotes EC50. An outline of the steps:
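Compound-treated wells received 9600 axenic amastigotes in RPMI 1640-based medium at pH 5.5 (37 °C, 5% CO2). Growth measured as ATP luminescence (CellTiter-Glo) after 2-day incubation; DMSO and reference compounds served as controls.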

The subject of assay [2] is Trypanosoma cruzi amastigotes cultured in 3T3 fibroblast cells. The assay can be described thus: Assay for growth inhibition of kinetoplastid parasite Trypanosoma cruzi (beta-galactosidase Tulahuen strain, CPRG readout). As to conditions: Trypanosoma cruzi, Fibroblast, T. cruzi amastigotes in 3T3 fibroblast cells; read-out: Buckner infectious T. cruzi EC50. An outline of the steps: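 3T3 fibroblasts (1,000 cells/well) plated overnight, treated with compound in DMSO, then infected with 10,000 Lac-Z-expressing Tulahuen trypomastigotes. After 6 days, 0.6 mM CPRG with 0.6% NP-40 added for 2 h at room temperature; absorbance gives relative intracellular amastigote numbers. Benznidazole and nifurtimox serve as positive controls.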

The test system of assay [3] is Trypanosoma brucei brucei (Lister 427) strain. Put plainly: Assay for growth inhibition against Trypanosoma brucei brucei (Cell TiterGlo ATP luminescence). As to conditions: T. brucei brucei (Lister 427), read-out: T. Brucei (HAT) EC50. An outline of the steps: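 Growth read-out is cellular ATP by CellTiter-Glo luminescence, measured 30 min after reagent addition, following 2-day incubation at 37 °C in CO2. Parasites (10,000/mL, HMI-9 plus 10% FBS and 10% serum plus) faced 10 threefold dilutions in duplicate; IC50 taken as 50% growth inhibition versus untreated.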

The test system of assay [4] is L. donovani HU3 strain in mouse peritoneal macrophages. The assay can be described thus: Assay for inhibition of parasitemia of Leishmania donovani in mouse macrophages (SYBR Green nuclei count, high-content imaging). The note with it: Leishmania donovani, Peritoneal macrophage, L. donovani in mouse peritoneal macrophages; read-out: L. donovani in Mouse Macrophages EC50. The essentials: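 Parasite numbers were counted from SYBR Green-stained nuclei imaged by high-content microscopy after paraformaldehyde fixation and Triton permeabilization. Before this, compound was applied for 5 days at 37° C to BALB/c peritoneal macrophages (2×10^4/well) that had been exposed 24 h to 4×10^5 L. donovani HU3 amastigotes harvested from infected mouse spleens.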

This is an account of results in patent publication US11384078B2, “5,6-fused-bicyclic compounds and compositions for the treatment of parasitic diseases” (NOVARTIS AG, priority 2017, dated 2022).

Read-outs that look alike come from different tables or passages of the source. Where only a bound is given, the exact number is not on record here.

As to `[2H]C([2H])([2H])N(c1cnc2nn(-c3cc(NC(=O)N4CCC4)ccc3F)cc2c1)C([2H])([2H])[2H]` [Compound 306, N-(3-{5-[bis(^2H3)methylamino]-2H-pyrazolo[3,4-b]pyridin-2-yl}-4-fluorophenyl)azetidine-1-carboxamide], the EC50 in assay [1] worked out at 90 nM; in assay [2] it was 2 nM; in assay [3] (Trypanosoma brucei), 5 nM; in assay [4] it was 4 nM.
On to `O=C(Nc1ccc(F)c(-n2cc3cc(N4CCN(CC(F)(F)F)CC4)cnc3n2)c1)N1CCC1` [Compound 250, N-(4-fluoro-3-{5-[4-(2,2,2-trifluoroethyl)piperazin-1-yl]-2H-pyrazolo[3,4-b]pyridin-2-yl}phenyl)azetidine-1-carboxamide], for which the EC50 came to 43 nM in assay [1], 1 nM in assay [2], 5 nM in assay [3] (Trypanosoma brucei) and 10 nM in assay [4].
For `CC(C)c1cnc2nn(-c3cc(NC(=O)c4ccco4)ccc3F)cc2c1` [Compound 196, N-{4-fluoro-3-[5-(propan-2-yl)-2H-pyrazolo[3,4-b]pyridin-2-yl]phenyl}furan-2-carboxamide], the EC50 in assay [1] was 76 nM; in assay [2], 12 nM; in assay [3] (Trypanosoma brucei), < 23 nM; in assay [4], 27000 nM.
On to `O=C(Nc1ccc(Cl)c(-n2cc3cc(N4CC(F)(F)C4)cnc3n2)c1)N1CCC1` [Compound 284, N-{4-chloro-3-[5-(3,3-difluoroazetidin-1-yl)-2H-pyrazolo[3,4-b]pyridin-2-yl]phenyl}azetidine-1-carboxamide], for which the EC50 is 27 nM in assay [1], 15 nM in assay [2], 15 nM in assay [3] (Trypanosoma brucei) and 56 nM in assay [4].
Regarding `Cc1nc(C(F)(F)F)oc1C(=O)Nc1ccc(F)c(-n2cc3cc(C(C)C)cnc3n2)c1` [Compound 78, N{4-fluoro-3-[5-(propan-2-yl)-2H-pyrazolo[3,4-b]pyridin-2-yl]phenyl}-4-methyl-2-(trifluoromethyl)-1,3-oxazole-5-carboxamide], the EC50 stood at 800 nM in assay [1], 450 nM in assay [2], 530 nM in assay [3] (Trypanosoma brucei) and 870 nM in assay [4].
The like results for `CC(C)OC(=O)Nc1cnc2nn(-c3cc(NC(=O)N4CC(F)(F)C4)ccc3F)cc2c1` [Compound 146, propan-2-yl N-(2-{5-[(3,3-difluoroazetidine-1-carbonyl)amino]-2-fluorophenyl}-2H-pyrazolo[3,4-b]pyridin-5-yl)carbamate] were, in that order, 26 nM, 85 nM, < 23 nM and 12 nM.
For the compound `CC1CCC(C(=O)Nc2ccc(F)c(-n3cc4cc(C(C)C)cnc4n3)c2)C1` (stereo not drawn) [Compound 66, N-{4-fluoro-3-[5-(propan-2-yl)-2H-pyrazolo[3,4-b]pyridin-2-yl]phenyl}-3-methylcyclopentane-1-carboxamide], the EC50 in assay [1] amounted to 740 nM; in assay [2], 150 nM; in assay [3] (Trypanosoma brucei), 120 nM; in assay [4], 870 nM.
As for `Cn1cc(-c2cnc3nn(-c4cc(NC(=O)N5CC(F)C5)ccc4F)cc3c2)cn1` [Compound 304, 3-fluoro-N-{4-fluoro-3-[5-(1-methyl-1H-pyrazol-4-yl)-2H-pyrazolo[3,4-b]pyridin-2-yl]phenyl}azetidine-1-carboxamide], the EC50 in assay [1] was found to be 4 nM; in assay [2], 30 nM; in assay [3] (Trypanosoma brucei), 5 nM; in assay [4], 3 nM.
With `O=C(Nc1ccc(F)c(-n2cc3cc(-c4ccccn4)cnc3n2)c1)N1CC[C@@H](F)C1` [Compound 53, (3R)-3-fluoro-N-{4-fluoro-3-[5-(pyridin-2-yl)-2H-pyrazolo[3,4-b]pyridin-2-yl]phenyl}pyrrolidine-1-carboxamide], the EC50 was 1.3 nM in assay [1], 1 nM in assay [2], < 23 nM in assay [3] (Trypanosoma brucei) and 2 nM in assay [4].
With `O=C(Nc1ccc(F)c(-n2cc3cc(-c4ccccn4)cnc3n2)c1)[C@@H]1C[C@@H]1F` (racemic) [Compound 349, (1S,2S)-2-fluoro-N-{4-fluoro-3-[5-(pyridin-2-yl)-2H-pyrazolo[3,4-b]pyridin-2-yl]phenyl}cyclopropane-1-carboxamide], the EC50 in assay [1] was 96 nM; in assay [2], 85 nM; in assay [3] (Trypanosoma brucei) it was 43 nM; in assay [4], 102 nM.
As to `O=C(Nc1ccc(F)c(-n2cc3cc(N4CCOCC4)cnc3n2)c1)N1CC(F)(F)C1` [Compound 145, 3,3-difluoro-N-{4-fluoro-3-[5-(morpholin-4-yl)-2H-pyrazolo[3,4-b]pyridin-2-yl]phenyl}azetidine-1-carboxamide], the concentration for a half-maximal effect (EC50) in assay [1] was 5.4 nM; in assay [2], 18 nM; in assay [3] (Trypanosoma brucei), < 23 nM; in assay [4], 4.7 nM.
The like results for `O=C(Nc1ccc(F)c(-n2cc3cc(N4CCCC4)cnc3n2)c1)N1CCC1` [Compound 163, N-{4-fluoro-3-[5-(pyrrolidin-1-yl)-2H-pyrazolo[3,4-b]pyridin-2-yl]phenyl}azetidine-1-carboxamide] were, in that order, 5.8 nM, 2.7 nM, < 23 nM and 4.1 nM.
With `CC(C)c1cnc2nn(-c3cc(NC(=O)c4nc(Cl)ccc4F)ccc3F)cc2c1` [Compound 86, 6-chloro-3-fluoro-N-{4-fluoro-3-[5-(propan-2-yl)-2H-pyrazolo[3,4-b]pyridin-2-yl]phenyl}pyridine-2-carboxamide], the EC50 is 130 nM in assay [1], 14 nM in assay [2], < 23 nM in assay [3] (Trypanosoma brucei) and 120 nM in assay [4].
The like results for `Cn1cnc(-c2cnc3nn(-c4cc(NC(=O)N5CC(F)C5)ccc4F)cc3c2)c1` [Compound 301, 3-fluoro-N-{4-fluoro-3-[5-(1-methyl-1H-imidazol-4-yl)-2H-pyrazolo[3,4-b]pyridin-2-yl]phenyl}azetidine-1-carboxamide] were, in that order, 73 nM, 472 nM, 8 nM and 97 nM.
The matching figures for `O=C(Nc1ccc(F)c(-n2cc3cc(C4CC4)cnc3n2)c1)N1CC(F)(F)C1` [Compound 29, N-(3-{5-cyclopropyl-2H-pyrazolo[3,4-b]pyridin-2-yl}-4-fluorophenyl)-3,3-difluoroazetidine-1-carboxamide]: 8.2 nM, 11 nM, < 23 nM and 9.7 nM.
As for `O=C(Nc1ccc(F)c(-n2cc3cc(N4CC(F)(F)C4)cnc3n2)c1)N1CCC1` [Compound 290, N-{3-[5-(3,3-difluoroazetidin-1-yl)-2H-pyrazolo[3,4-b]pyridin-2-yl]-4-fluorophenyl)azetidine-1-carboxamide], the EC50 in assay [1] was 7 nM; in assay [2], 4 nM; in assay [3], 4 nM; in assay [4], 4 nM.
In the case of `CN(C)c1cnc2nn(-c3cc(NC(=O)N4CC(F)(F)C4)ccc3F)cc2c1` [Compound 9, N-(3-(5-(dimethylamino)-2H-pyrazolo[3,4-b]pyridin-2-yl)-4-fluorophenyl)-3,3-difluoroazetidine-1-carboxamide], the EC50 worked out at 8.7 nM in assay [1], 9.8 nM in assay [2], 35 nM in assay [3] (Trypanosoma brucei) and 11 nM in assay [4].
The matching figures for `O=C(Nc1ccc(F)c(-n2cc3cc(N4CC(C(F)(F)F)C4)cnc3n2)c1)N1CCC1` [Compound 274]: 2 nM, 1 nM, 1 nM and 3 nM.
The matching figures for `O=C(Nc1ccc(F)c(-n2cc3cc(N4CCC4)cnc3n2)c1)c1ccco1` [Compound 151, N-{3-[5-(azetidin-1-yl)-2H-pyrazolo[3,4-b]pyridin-2-yl]-4-fluorophenyl}furan-2-carboxamide]: 60 nM, 12 nM, < 23 nM and 13 nM.
The matching figures for `CC(C)c1cnc2nn(-c3cc(NC(=O)C4CC4)ccc3F)cc2c1` [Compound 90, N-{4-fluoro-3-[5-(propan-2-yl)-2H-pyrazolo[3,4-b]pyridin-2-yl]phenyl}cyclopropanecarboxamide]: 280 nM, 140 nM, 77 nM and 310 nM.
`O=C(Nc1cccc(-n2cc3cc(N4CC5(CC5)C4)cnc3n2)c1)N1CCC1` [Compound 287, N-[3-(5-{5-azaspiro[2.3]hexan-5-yl}-2H-pyrazolo[3,4-b]pyridin-2-yl)phenyl]azetidine-1-carboxamide]: the EC50 in assay [1] was 21 nM; in assay [2], 21 nM; in assay [3] (Trypanosoma brucei), 10 nM; in assay [4] it was 30 nM.
